{
  "source": "patent EP1144423B1",
  "about": "“BIS-TERPYRIDINE-PLATINUM(II) COMPLEXES” (ISIS INNOVATION LIMITED, priority 1999, dated 2000)",
  "key": {"cell line SKOV3 [1]": {"tested_on": "cell line SKOV3", "settings": "reported in WO 97/27202; cited from earlier work"}, "[2]": {"tested_on": "cisplatin resistant CH1 cell line (CH1cis^R)", "settings": "96 h exposure, value reported in WO97/27202; cited from earlier work"}, "poly[d(A-T)2]": {"tested_on": "poly[d(A-T)2]", "settings": "second binding mode, circular dichroism; cited from earlier work"}, "[3]": {"assay": "maximum tolerated dose, single intraperitoneal injection", "type": "in vivo", "settings": "for loss of body weight: 25, 50 and 100 mg/kg i.p., body weight 2 weeks post-dosing; for deaths: single intraperitoneal injection at 25, 50 and 100 mg/kg; for signs of induced toxicity: single intraperitoneal injection", "procedure": "The maximum tolerated dose was determined for A15(4NO3) and I15(4NO3).\nDrugs were administered as a single intraperitoneal injection at 25, 50 and 100 mg/kg. Animals were observed daily for signs of induced toxicity and body weight determined 2 weeks post-dosing."}, "[4]": {"tested_on": "doxirubicin resistant CH1 cell line", "type": "cell-based, human", "settings": "doxirubicin resistant CH1 cell line versus CH1", "procedure": "(§1) The IC50 values of the bis-2,2':6',2\"-terpyridine Pt(II) complexes (1, Z=trans-CH=CH-, Y=H), (1, Z=trans-CH=CH-, Y=Cl) and (1, Z=trans-CH=CH-, Y=4-Br.C6H4), were reported in PCT/GB97/00218 (WO97/27202) and referred to as A14, I14 and Q14 respectively. They were evaluated for in vitro cytotoxicity against five human ovarian carcinoma cell lines which included two selected for resistance to cisplatin (Ch1cis^R and A2780cis^R) and one for resistance to doxorubicin (Ch1dox^R). The compounds were exposed to cells for 96 h and growth inhibition assessed using the sulforhodamine B protein staining assay."}, "CH1 cell line": {"tested_on": "CH1 cell line", "assay": "in vitro cytotoxicity, sulforhodamine B growth inhibition assay", "type": "cell-based, human", "settings": "96 h exposure", "procedure": "as §1"}, "[5]": {"tested_on": "cisplatin resistant CH1 cell line (CH1cis^R)", "assay": "in vitro cytotoxicity, sulforhodamine B growth inhibition assay", "type": "cell-based, human", "settings": "96 h exposure", "procedure": "as §1"}, "[6]": {"tested_on": "A2780 cisplatin resistant cell line (A2780cis^R)", "assay": "in vitro cytotoxicity, sulforhodamine B growth inhibition assay", "type": "cell-based, human", "procedure": "as §1"}, "cell line SKOV3 [7]": {"tested_on": "cell line SKOV3", "assay": "in vitro cytotoxicity, sulforhodamine B growth inhibition assay", "type": "cell-based, human", "procedure": "as §1"}, "cell line A2780": {"tested_on": "cell line A2780", "assay": "in vitro cytotoxicity, sulforhodamine B growth inhibition assay", "type": "cell-based, human", "settings": "96 h exposure", "procedure": "as §1"}, "calf-thymus (ct)-DNA": {"tested_on": "calf-thymus (ct)-DNA", "settings": "literature values; cited from earlier work"}, "DNA": {"tested_on": "DNA", "settings": "intercalation into DNA, literature value [4]; cited from earlier work"}},
  "note": "Like-named read-outs stand apart in the source and are kept apart here.",
  "data": [
    {"compound": "4,4'-vinylenedipyridine bis[2,2':6',2\"-terpyridine platinum (II)] [A14 (4BF4)]", "values": [
      {"measurement": "antitumour activity compared with cisplatin", "setting": "cell line SKOV3 [1]", "value": "more effective than cisplatin"},
      {"measurement": "IC50", "setting": "[2]", "value": "< 1", "unit": "µM"}
    ]},
    {"compound": "Cc1cc[n+]([Pt-2]23[n+]4ccccc4-c4cccc([n+]42)-c2cccc[n+]23)cc1.F[B-](F)(F)F.F[B-](F)(F)F", "note": "[4-Picoline-2,2':6',2\"-terpyridine-platinum(II) bis-tetrafluoroborate]", "values": [
      {"measurement": "equilibrium binding constant", "setting": "poly[d(A-T)2]", "value": "about 1 x10^6 M^-1"}
    ]},
    {"compound": "C(C#Cc1cc[n+]([Pt-2]23[n+]4ccccc4-c4cccc([n+]42)-c2cccc[n+]23)cc1)#Cc1cc[n+]([Pt-2]23[n+]4ccccc4-c4cccc([n+]42)-c2cccc[n+]23)cc1.O=[N+]([O-])[O-].O=[N+]([O-])[O-].O=[N+]([O-])[O-].O=[N+]([O-])[O-]", "note": "[A15, 1,4-Bis(4-pyridyl)butadiyne bis[(2,2':6',2\"-terpyridine)platinum(II)] tetranitrate]", "values": [
      {"measurement": "loss of body weight", "setting": "[3]", "value": "no loss of body weight"},
      {"measurement": "deaths", "setting": "[3]", "value": "no deaths"},
      {"measurement": "signs of induced toxicity", "setting": "[3]; 100 mg/kg", "value": "no sign of toxicity or body weight loss"},
      {"measurement": "resistance factors (RF)", "setting": "[4]", "value": 0.6},
      {"measurement": "IC50", "setting": "CH1 cell line", "value": "< 1", "unit": "µM"},
      {"measurement": "IC50", "setting": "[5]", "value": "< 1", "unit": "µM"}
    ]},
    {"compound": "Clc1cc2[n+]3c(c1)-c1cccc[n+]1[Pt-2]3([n+]1ccc(C#CC#Cc3cc[n+]([Pt-2]45[n+]6ccccc6-c6cc(Cl)cc([n+]64)-c4cccc[n+]45)cc3)cc1)[n+]1ccccc1-2.O=[N+]([O-])[O-].O=[N+]([O-])[O-].O=[N+]([O-])[O-].O=[N+]([O-])[O-]", "note": "[I15, 1,4-Bis(4-pyridyl)butadiyne bis[(4'-chloro-2,2':6'2\"-terpyridine)platinum(II)] tetranitrate]", "values": [
      {"measurement": "loss of body weight", "setting": "[3]", "value": "no loss of body weight"},
      {"measurement": "deaths", "setting": "[3]", "value": "no deaths"},
      {"measurement": "signs of induced toxicity", "setting": "[3]; 50 mg/kg", "value": "not at 50 mg/kg"},
      {"measurement": "signs of induced toxicity", "setting": "[3]; 100 mg/kg", "value": "some indication of toxicity (mild ataxia/twitching)"},
      {"measurement": "times more effective than cisplatin", "setting": "[6]; A2780cis^R cell line", "value": 13, "unit": "times"},
      {"measurement": "resistance factors (RF)", "setting": "[6]; A2780cis^R versus A2780", "value": 1.1},
      {"measurement": "antitumour activity compared with cisplatin", "setting": "cell line SKOV3 [7]", "value": "more effective than cisplatin"},
      {"measurement": "IC50", "setting": "cell line A2780", "value": "< 1", "unit": "µM"}
    ]},
    {"compound": "Clc1cc2[n+]3c(c1)-c1cccc[n+]1[Pt-2]3([n+]1ccc(-c3cc[n+]([Pt-2]45[n+]6ccccc6-c6cc(Cl)cc([n+]64)-c4cccc[n+]45)cc3)cc1)[n+]1ccccc1-2.O=[N+]([O-])[O-].O=[N+]([O-])[O-].O=[N+]([O-])[O-].O=[N+]([O-])[O-]", "note": "[I18, 4,4'-Dipyridine bis[(4'-chloro-2,2':6',2\"-terpyridine)platinum(II)] tetranitrate]", "values": [
      {"measurement": "antitumour activity compared with cisplatin", "setting": "cell line SKOV3 [7]", "value": "more effective than cisplatin"},
      {"measurement": "IC50", "setting": "CH1 cell line", "value": "< 1", "unit": "µM"},
      {"measurement": "IC50", "setting": "[5]", "value": "< 1", "unit": "µM"}
    ]},
    {"compound": "O=[N+]([O-])[O-].O=[N+]([O-])[O-].O=[N+]([O-])[O-].O=[N+]([O-])[O-].O=[N+]([O-])[O-].O=[N+]([O-])[O-].[NH3+][Pt-2]([NH3+])([n+]1ccc(-c2cc[n+]([Pt-2]34[n+]5ccccc5-c5cc(Cl)cc([n+]53)-c3cccc[n+]34)cc2)cc1)[n+]1ccc(-c2cc[n+]([Pt-2]34[n+]5ccccc5-c5cc(Cl)cc([n+]53)-c3cccc[n+]34)cc2)cc1", "note": "[I20, trans-Diamminebis(4,4'-dipyridyl)platinum(II) bis[(4'-chloro-2,2':6',2\"-terpyridine)platinum(II)] hexanitrate]", "values": [
      {"measurement": "resistance factors (RF)", "setting": "[4]", "value": 0.8},
      {"measurement": "IC50", "setting": "CH1 cell line", "value": "< 1", "unit": "µM"},
      {"measurement": "IC50", "setting": "[5]", "value": "< 1", "unit": "µM"}
    ]},
    {"compound": "[Cl-].[Cl-].[Pt+2].c1ccc(-c2cccc(-c3ccccn3)n2)nc1", "note": "[chloroplatinum complex]", "values": [
      {"measurement": "binding association constants with ct-DNA", "setting": "calf-thymus (ct)-DNA", "value": "essentially the same binding constant"}
    ]},
    {"compound": "F[B-](F)(F)F.[OH][Pt-2]12[n+]3ccccc3-c3cccc([n+]31)-c1cccc[n+]12", "note": "[hydroxy-platinum complex]", "values": [
      {"measurement": "binding constant", "setting": "DNA", "value": "approximately 7 x 10^4 M^-1"}
    ]},
    {"compound": "hydroxyethanethiolate-2,2':6',2\"-terpyridine-platinum(II) [hydroxy-ethanethiolate complex]", "values": [
      {"measurement": "binding association constants with ct-DNA", "setting": "calf-thymus (ct)-DNA", "value": 83000, "unit": "M⁻¹"}
    ]}
  ]
}
